Experimental data reported in US20250332158A1, “COMPOSITION FOR PROMOTING MITOPHAGY ACTIVITY COMPRISING ISOQUINOLINE DERIVATIVE COMPOUND AS ACTIVE INGREDIENT AND USE THEREOF” (ALTMEDICAL CO., LTD., priority 2022, published 2025).
“Also recorded” adds a separate entry of the source. Read-outs that look alike come from different tables or passages of the source.

Assays:
[1] = test system: human normal lung cell line BEAS-2B; experiment: colony forming assay (cytotoxicity); type: cell-based
Procedure: A colony forming assay was performed to confirm the cytotoxicity of the novel isoquinoline derivatives of the present disclosure. Specifically, the isoquinoline derivatives were treated to the human normal lung cell line BEAS-2B for 24 hours, followed by culturing for 2 weeks to analyze the colony formed. As controls, a control group (con) that was not treated with anything and a positive control treated with CCCP, which induces mitophagy activity but also causes mitochondrial dysfunction and toxicity, were used.

[2] = test system: human normal lung cell line BEAS-2B; experiment: mitophagy activity by mt-Keima (mitokeyma) fluorescent protein quantification, flow cytometry; type: cell-based; conditions: for mitophagy activity compared to the con group / concentration showing maximum mitophagy activity: BEAS-2B; for mitophagy activity compared to the con group: 20 µM, 24 hours, flow cytometer (FIG. 2A); for concentration showing maximum mitophagy activity: concentration series (FIG. 2B); for times higher mitophagy activity than CD1-012: from concentrations of maximum mitophagy activity
Excerpt: By utilizing these characteristics, mt-Keima can be expressed specifically in mitochondria, and by performing integrated analysis of the fluorescence signals at 458 nm and 561 nm, the fluorescence signal can be analyzed when mitochondria in a neutral environment (pH=7.4-7.8) are converted to an acidic environment (pH=4.5) by lysosomes delivered from mitophagy, allowing for quantitative measurement of mitophagy activity.
Specifically, a mitokeyma fluorescent protein quantification method, which allows for the quantitative measurement of mitophagy activity in living cells, was used. […] After treatment, the activity of mitophagy was measured using a flow cytometer. As a negative control, a control group (Control, con) without compound treatment was used, and as a positive control, CCCP (10 μM), which experimentally induces mitophagy activity, and CD1-012, a precursor of the compound of the present disclosure known to induce mitophagy activity, were used.

| Compound | mitophagy activity compared to the con group [2] | further results |
| --- | --- | --- |
| N#CC(C#N)=NNc1cccc(Cl)c1 [CCCP, reference compound] | – | size and number of colonies (cytotoxicity) [1]: decrease in both the size and number of colonies |
| Oc1cc2c(cc1O)-c1cc3ccc(O)c(O)c3c[n+]1CC2 [CD1-271] | promote the activity of mitophagy | – |
| COc1ccc2c(c1OC)CN1CCc3cc4c(cc3C1=C2)OCO4 [CD1-363] | promote the activity of mitophagy | – |
| Oc1cc2c(cc1O)C1=Cc3ccc(O)c(O)c3CN1CC2 [CD1-367] | promote the activity of mitophagy | size and number of colonies (cytotoxicity) ([1]; BEAS-2B, treated 24 hours, cultured 2 weeks (FIG. 4)): except for CD1-367, did not exhibit cytotoxicity |
| C=CCc1c2[n+](cc3c(OC)c(OC)ccc13)CCc1cc3c(cc1-2)OCO3 [CD1-386] | best mitophagy activity promotion; also recorded: promote the activity of mitophagy | concentration showing maximum mitophagy activity [2]: 5 µM; times higher mitophagy activity than CD1-012 [2]: 4 times |
| COc1ccc2c(Cc3ccccc3)c3[n+](cc2c1OC)CCc1cc2c(cc1-3)OCO2 [CD1-404] | promote the activity of mitophagy | – |
| CCc1c2[n+](cc3c(OC)c(OC)ccc13)CCc1cc3c(cc1-2)OCO3 [CD1-409] | best mitophagy activity promotion; also recorded: promote the activity of mitophagy | concentration showing maximum mitophagy activity [2]: 10 µM; times higher mitophagy activity than CD1-012 [2]: 2 times |
